{
  "source": "patent US11344630B2",
  "about": "“Methods and compositions for red-shifted chromophore substitution for optogenetic applications” (Washington University, priority 2014, dated 2022)",
  "key": {"[1]": {"target": "T1, archaerhodopsin proton pump, AR-3 (Halorubrum sodomense, UniProt P96787)", "T1 construct": "host or cells: E. coli", "T1 sequence (P96787 7-258)": "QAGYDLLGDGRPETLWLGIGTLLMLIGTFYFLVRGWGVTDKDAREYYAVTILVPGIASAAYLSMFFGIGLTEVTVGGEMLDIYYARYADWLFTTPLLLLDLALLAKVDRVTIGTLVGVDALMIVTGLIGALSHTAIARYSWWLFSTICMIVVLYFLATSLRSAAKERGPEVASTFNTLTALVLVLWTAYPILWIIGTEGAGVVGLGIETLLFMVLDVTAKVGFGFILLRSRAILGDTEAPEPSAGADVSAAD", "conditions": "cited from earlier work; for wavelength of half-maximal absorption on the red slope of the curve: AR-3 expressed in E. coli, chromophore as labelled"}, "[2]": {"assay": "Absorbance spectra of retinoid HPLC peaks", "type": "physicochemical", "conditions": "predominant retinoid species of zebrafish retina extracts, reduced with sodium borohydride", "description": "(§1) FIG. 1A, FIG. 1B, FIG. 1C, FIG. 1D, FIG. 1E, FIG. 1F, FIG. 1G, FIG. 1H, FIG. 1I, FIG. 1J and FIG. 1K depict images and graphs showing that diverse species employ a vitamin A1 to vitamin A2 switch to red-shift the spectral sensitivity of their photoreceptors. (FIG. 1A) Depicts the conversion of all-trans retinol (vitamin A1) into all-trans 3,4-didehydroretinol (vitamin A2). (FIG. 1B, FIG. 1C, FIG. 1D) Depict several species that switch between the use of vitamin A1 and vitamin A2 for vision at different stages of their life cycle. (FIG. 1B) Sea lamprey; (FIG. 1C) Coho salmon; and (FIG. 1D) Northern leopard frog. (FIG. 1E, FIG. 1F, FIG. 1G, FIG. 1H) depict graphs showing that thyroid hormone treatment of adult zebrafish induces quantitative conversion of retinol into 3,4-didehydroretinol. Adult zebrafish were treated with 300 μg/liter thyroid hormone (L-thyroxine) in their water for three weeks. The retinas were then harvested, and retinoid extracts were reduced with sodium borohydride and analyzed by HPLC. (FIG. 1E) Depicts the position of peak #1 in control zebrafish. (FIG. 1F) Depicts the position of peak #2 in TH-treated zebrafish. […] Note that only vitamin A1 and its derivatives (the retinal form has been reduced to the alcohol form) are detected in the ventral RPE whereas both vitamin A1 and vitamin A2 are present in nearly equal proportions in the dorsal RPE. […]"}, "optogenetic actuators": {"tested_on": "optogenetic actuators", "conditions": "replacing retinal with 3,4-didehydroretinal, in vitro; cited from earlier work"}, "Opn1mw4": {"tested_on": "Opn1mw4", "assay": "RNA-seq expression profiling of RPE samples from thyroid hormone-treated zebrafish (photoreceptor transcripts)", "type": "in vivo", "conditions": "thyroid hormone-treated 'RPE' samples vs controls", "description": "We therefore analyzed a range of photoreceptor gene transcripts in our thyroid hormone-treated ‘RPE’ and controls, and found similar levels of photoreceptor contamination between the two samples."}, "adult zebrafish": {"tested_on": "adult zebrafish", "assay": "Thyroid hormone treatment of zebrafish, retinoid content of retinas by HPLC", "type": "in vivo", "description": "as §1"}, "red single cones": {"tested_on": "red single cones", "assay": "Suction electrode recordings of red single cones from wild-type and cyp27c1 mutant fish", "type": "in vivo", "conditions": "cyp27c1 mutant zebrafish after thyroid hormone treatment", "description": "FIG. 11A and FIG. 11B depict graphs presenting suction electrode recordings of red single cones from wild-type and Cyp27c1 mutant fish. […] (FIG. 11A) Untreated wild-type and mutant zebrafish have similar sensitivity.\nTo continue to probe the effects of Cyp27c1, we generated cyp27c1 null mutant zebrafish. […] We then utilized the mutant zebrafish to identify their ability to covert retinol (A1) to 3,4-didehydroretinol (A2). […] Suction electrode recordings of red single cones from wild-type and cyp27c1 mutant fish were performed."}, "Cyp27c1 transcript": {"tested_on": "Cyp27c1 transcript", "assay": "RNA-seq expression profiling of RPE from thyroid hormone-treated zebrafish vs vehicle-treated controls", "type": "in vivo", "conditions": "zebrafish treated 3 weeks with thyroid hormone vs vehicle-treated controls", "description": "FIG. 2A and FIG. 2B depict the results of RNA-seq-based expression profiling of zebrafish and bullfrog retinal pigment epithelium (RPE). (FIG. 2A) RNA-seq results comparing the expression levels of individual transcripts (shown as black circles) from RPE derived from zebrafish treated for 3 weeks with thyroid hormone and vehicle-treated controls. The location of the Cyp27c1 transcript is circled in red. (FIG. 2B) RNA-seq results comparing the expression levels of individual transcripts (shown as black circles) from dorsal and ventral bullfrog RPE. The location of the Cyp27c1 transcript is circled in red.\nIt has long been postulated that the conversion of retinal into 3,4-dehydroretinal in migratory fish is mediated by a ‘terminal ring dehydrogenase’^8. […] To identify the transcript encoding this enzyme, we carried out transcriptome profiling of thyroid hormone-treated fish and compared them to vehicle-treated controls. We hypothesized that the enzyme was likely to be expressed in one of three tissues: retinal pigment epithelium (which lies immediately adjacent to photoreceptors and is a known source of retinoids), retina or liver. We obtained RNA-seq data for RPE and identified an excellent candidate transcript, flj13639. This transcript encodes an ‘orphan’ member of the cytochrome P450 family of monooxygenases, Cyp27c1 (FIG. 2A). […]"}, "HEK293 cells": {"tested_on": "HEK293 cells", "assay": "Cyp27c1 expression in HEK293 cells incubated with retinol, retinoids by HPLC", "type": "cell-based, human", "conditions": "transfected HEK293 cells incubated with retinol 24 hours, vs empty vector", "procedure": "FIG. 5A, FIG. 5B, FIG. 5C, FIG. 5D and FIG. 5E depict the results of introducing an expression construct containing the zebrafish ortholog of Cyp27c1 into HEK293 cells and incubating with retinol for 24 hours (vitamin A1). […] (FIG. 5D, FIG. 5E) depicts the HPLC profile of commercially obtained chemical standards A1 (FIG. 5D) and A2 (FIG. 5E).\nNext, we determined if Cyp27c1 is sufficient to convert retinal to 3,4-didehydroretinal. We cloned a full-length zebrafish Cyp27c1 cDNA and a full-length human Cyp27c1 cDNA into a mammalian expression vector and expressed it in HEK293 cells. FIG. 3 confirms that the recombinant zebrafish and human Cyp27c1 are expressed in the HEK293 cells."}},
  "note": "Entries after “also recorded” stand apart in the source; their conditions may differ.",
  "data": [
    {"molecule": "CC1=C(/C=C/C(C)=C/C=C/C(C)=C/C=O)C(C)(C)CCC1", "note": "[retinal, all-trans retinal]", "values": [
      {"measurement": "wavelength of half-maximal absorption on the red slope of the curve", "setting": "[1]", "result": 599, "unit": "nm"}
    ]},
    {"molecule": "CC1=C(/C=C/C(C)=C/C=C/C(C)=C/CO)C(C)(C)CC=C1", "note": "[3,4-didehydroretinol, all-trans 3,4-didehydroretinol]", "values": [
      {"measurement": "absorbance maximum (peak)", "setting": "[2]", "result": 355, "unit": "nm"}
    ]},
    {"molecule": "CC1=C(/C=C/C(C)=C/C=C/C(C)=C/C=O)C(C)(C)CC=C1", "note": "[3,4-didehydroretinal]", "values": [
      {"measurement": "red-shift of wavelength of half-maximal absorption", "setting": "[1]; 3,4-didehydroretinal in place of retinal in AR-3", "result": 40, "unit": "nm"},
      {"measurement": "wavelength of half-maximal absorption on the red slope of the curve", "setting": "[1]", "result": 639, "unit": "nm"},
      {"measurement": "red-shift of action spectra", "setting": "optogenetic actuators", "result": "greater than 30 nm"}
    ]},
    {"molecule": "CC1=C(/C=C/C(C)=C/C=C/C(C)=C/CO)C(C)(C)CCC1", "note": "[retinol, all-trans retinol]", "values": [
      {"measurement": "absorbance maximum (peak)", "setting": "[2]", "result": 326, "unit": "nm"}
    ]},
    {"molecule": "N[C@@H](Cc1cc(I)c(Oc2cc(I)c(O)c(I)c2)c(I)c1)C(=O)O", "note": "[thyroid hormone, L-thyroxine]", "values": [
      {"measurement": "Opn1mw4 transcript upregulation", "setting": "Opn1mw4", "result": 4, "unit": "fold"},
      {"measurement": "HPLC profile of retinoids", "setting": "adult zebrafish; thyroid hormone treated cyp27c1 null mutant zebrafish", "result": "only the presence of A1"},
      {"measurement": "conversion of retinal into 3,4-dehydroretinal (A1 to A2) in retinas", "setting": "adult zebrafish; wild-type adult zebrafish, 300 μg/liter L-thyroxine in water, three weeks, HPLC", "result": "quantitative conversion of retinal into 3,4-dehydroretinal; also recorded: conversion of A1 to A2"},
      {"measurement": "red-shift of red cone sensitivity", "setting": "red single cones", "result": "fail to red-shift"},
      {"measurement": "Cyp27c1 transcript expression level in RPE", "setting": "Cyp27c1 transcript", "result": "markedly upregulated"}
    ]},
    {"molecule": "human Cyp27c1: cytochrome P450, family 27, subfamily C, polypeptide 1 encoded by the cyp27c1 gene from Homo sapiens (protein, UniProt Q4G0S4 81-542, looked up) Cytochrome P450 27C1: ANLAEFFCRDGFSRIHEIQQKHTREYGKIFKSHFGPQFVVSIADRDMVAQVLRAEGAAPQRANMESWREYRDLRGRATGLISAEGEQWLKMRSVLRQRILKPKDVAIYSGEVNQVIADLIKRIYLLRSQAEDGETVTNVNDLFFKYSMEGVATILYESRLGCLENSIPQLTVEYIEALELMFSMFKTSMYAGAIPRWLRPFIPKPWREFCRSWDGLFKFSQIHVDNKLRDIQYQMDRGRRVSGGLLTYLFLSQALTLQEIYANVTEMLLAGVDTTSFTLSWTVYLLARHPEVQQTVYREIVKNLGERHVPTAADVPKVPLVRALLKETLRLFPVLPGNGRVTQEDLVIGGYLIPKGTQLALCHYATSYQDENFPRAKEFRPERWLRKGDLDRVDNFGSIPFGHGVRSCIGRRIAELEIHLVVIQLLQHFEIKTSSQTNAVHAKTHGLLTPGGPIHVRFVNRK", "values": [
      {"measurement": "formation of 3,4-didehydroretinol (A2) from retinol", "setting": "HEK293 cells", "result": "significant quantities of 3,4-didehydroretinol"}
    ]},
    {"molecule": "zebrafish Cyp27c1: cytochrome P450, family 27, subfamily C, polypeptide 1 encoded by the cyp27c1 gene from Danio rerio (protein, UniProt A8WGA0 1-540, looked up) Cytochrome P450 27C1: MALQSTILHMARKNLLQESCRQLLIQTHGLHKSVASGSLEIAAHSQADLKEESAVSPAEEVQKAARVKSLKEMPGPSTVANLLEFFYRDGFSRIHEIQMEHAKKYGKIFKSRFGPQFVVSIADRDMVAQVLRSESATPQRGNMESWKEYRDLRGRSTGLISAEGDEWLKMRSVLRQLIMRPRDVAVFSSDVNDVVADLVKRVKTLRSQQDDSQTVLNINDLFFKYAMEGVATILYETRLGCLENEIPKMSQEYITALHLMFSSFKTTMYAGAIPKWLRPIIPKPWEEFCSSWDGLFKFSQIHVDKRLSEIKKQMEKSEEIKGGLLTHMLVTREMNLEEIYANMTEMLLAGVDTTSFTLSWSTYLLARHPTIQQQIFEEVDRVLGGRVPTGEDVPYLPLIRGLVKETLRLFPVLPGNGRVTHDDLIVGGYLIPKGTQLALCHYSTSMDEENFPRPEEFRPDRWIRKDASDRVDNFGSIPFGYGIRSCIGRRIAELEMHLALTQLLQNFHIEVSPQTTEVHAKTHGLLCPGASINLRFTDRK", "values": [
      {"measurement": "formation of 3,4-didehydroretinol (A2) from retinol", "setting": "HEK293 cells", "result": "significant quantities of 3,4-didehydroretinol"}
    ]}
  ]
}
